Values of other authors in patent publication US20240139350A1, “RADIOACTIVELY LABELED LIGAND FOR FIBROBLAST ACTIVATION PROTEIN-ALPHA IMAGING AGENT AND PREPARATION METHOD THEREFOR” (FIVE ELEVEN PHARMA, INC, priority 2021, published 2024).

Tests used:
[1] = system: FAP-positive tumor; settings: after 24 hours, relative to FAPI-02
[2] = coordination to Ga^3+
[3] = target: T1, murine FAP (Mus musculus, UniProt P97321); settings: human embryonic kidney cells expressing mouse FAP
T1 construct: expressed in transfected cells; host or cells: human embryonic kidney cells
T1 sequence (P97321 1-761): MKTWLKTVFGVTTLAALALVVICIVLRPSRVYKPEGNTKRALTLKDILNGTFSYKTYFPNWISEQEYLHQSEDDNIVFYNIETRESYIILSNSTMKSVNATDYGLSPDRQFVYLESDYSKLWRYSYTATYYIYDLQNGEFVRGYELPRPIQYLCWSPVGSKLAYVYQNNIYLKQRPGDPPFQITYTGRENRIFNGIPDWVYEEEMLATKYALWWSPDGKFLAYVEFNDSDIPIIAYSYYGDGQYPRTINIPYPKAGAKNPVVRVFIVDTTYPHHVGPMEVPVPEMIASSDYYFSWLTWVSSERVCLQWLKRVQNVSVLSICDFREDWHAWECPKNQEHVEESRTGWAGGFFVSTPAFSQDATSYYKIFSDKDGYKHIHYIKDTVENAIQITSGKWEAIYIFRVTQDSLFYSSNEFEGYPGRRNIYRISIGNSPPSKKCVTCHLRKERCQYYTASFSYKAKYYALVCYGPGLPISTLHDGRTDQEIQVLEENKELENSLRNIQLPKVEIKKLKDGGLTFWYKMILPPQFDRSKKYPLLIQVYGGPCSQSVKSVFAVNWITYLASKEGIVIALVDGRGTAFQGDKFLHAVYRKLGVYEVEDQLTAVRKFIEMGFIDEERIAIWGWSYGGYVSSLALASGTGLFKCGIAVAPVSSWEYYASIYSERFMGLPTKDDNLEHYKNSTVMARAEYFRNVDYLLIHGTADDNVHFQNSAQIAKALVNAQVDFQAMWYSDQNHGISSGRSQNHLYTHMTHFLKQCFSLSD

[4] = target: T2, dipeptidyl peptidase 4 (CD26) (Homo sapiens, UniProt P27487); settings: human embryonic kidney cells transfected with CD26
T2 construct: expressed in transfected cells; host or cells: human embryonic kidney cells
T2 sequence (P27487 whole entry, species assumed): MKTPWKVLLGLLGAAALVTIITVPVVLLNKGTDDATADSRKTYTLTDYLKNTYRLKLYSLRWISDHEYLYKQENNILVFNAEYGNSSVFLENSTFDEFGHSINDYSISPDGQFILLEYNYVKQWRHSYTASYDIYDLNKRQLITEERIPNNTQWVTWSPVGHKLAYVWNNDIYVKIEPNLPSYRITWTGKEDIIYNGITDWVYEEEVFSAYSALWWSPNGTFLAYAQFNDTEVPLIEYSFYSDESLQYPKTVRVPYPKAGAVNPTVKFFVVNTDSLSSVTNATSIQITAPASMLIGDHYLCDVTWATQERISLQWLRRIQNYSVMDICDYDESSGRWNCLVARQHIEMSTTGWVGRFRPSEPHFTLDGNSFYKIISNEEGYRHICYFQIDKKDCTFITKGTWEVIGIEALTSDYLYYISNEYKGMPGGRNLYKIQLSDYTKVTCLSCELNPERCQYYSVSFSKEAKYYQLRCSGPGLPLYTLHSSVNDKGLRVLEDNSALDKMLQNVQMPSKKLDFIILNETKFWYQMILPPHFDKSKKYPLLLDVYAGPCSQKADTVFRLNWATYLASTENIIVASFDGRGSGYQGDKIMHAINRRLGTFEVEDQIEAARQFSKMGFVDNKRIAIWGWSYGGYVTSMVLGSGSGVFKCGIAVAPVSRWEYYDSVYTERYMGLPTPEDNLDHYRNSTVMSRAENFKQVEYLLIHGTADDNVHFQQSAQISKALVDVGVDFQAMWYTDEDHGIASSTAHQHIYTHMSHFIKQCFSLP

SMILES | binding to murine FAP [3] | thermodynamically stable constant log KML [2] | further results
N#C[C@@H]1CC(F)(F)CN1C(=O)CNC(=O)c1ccnc2ccc(OCCCN3CCN(C(=O)CN4CCN(CC(=O)O)CCN(CC(=O)O)CCN(CC(=O)O)CC4)CC3)cc12 (177Lu complex, metal not drawn) [FAPI-04] | – | – | effective tumor uptake higher than FAPI-02 [1]: 100%
CC1(N(CC(=O)O)CC(=O)O)CN(CC(=O)O)CCN(CC(=O)O)C1 [AAZTA] | – | 22.18 | –
O=C(O)CN1CCN(CC(=O)O)CCN(CC(=O)O)CCN(CC(=O)O)CC1 [DOTA] | – | 21.3 | –
O=C(O)CN1CCN(CC(=O)O)CCN(CC(=O)O)CC1 [NOTA] | – | 31.0 | –

Now from value to compound, other results behind:

binding to murine FAP [3] | SMILES | thermodynamically stable constant log KML [2] | further results
strong binding | N#C[C@@H]1CCCN1C(=O)CNC(=O)c1ccnc2ccc(OCCCN3CCN(C(=O)CN4CCN(CC(=O)O)CCN(CC(=O)O)CCN(CC(=O)O)CC4)CC3)cc12 [FAPI-02] | – | –
strong binding | N#C[C@@H]1CC(F)(F)CN1C(=O)CNC(=O)c1ccnc2ccc(OCCCN3CCN(C(=O)CN4CCN(CC(=O)O)CCN(CC(=O)O)CCN(CC(=O)O)CC4)CC3)cc12 [FAPI-04] | – | binding to CD26 [4]: did not bind
